Test results reported in PubChem BioAssay (NCI).
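In this assay, cells in 96-well plates receive the compound at five concentrations for 48 hours. Endpoints are linearly interpolated between the surrounding concentrations. TGI is the concentration that stops growth completely.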

Columns and labels:
Test in all cases: NCI-60 cell line screen, 48 h
A498 renal = test system: A498 renal
ACHN renal = test system: ACHN renal
CAKI-1 renal = test system: CAKI-1 renal
COLO 205 colon = test system: COLO 205 colon
DU-145 prostate = test system: DU-145 prostate
HCT-116 colon = test system: HCT-116 colon
HT29 colon = test system: HT29 colon
KM12 colon = test system: KM12 colon
MDA-MB-435 = test system: MDA-MB-435
MDA-N = test system: MDA-N
NCI-H522 lung = test system: NCI-H522 lung
OVCAR-3 ovarian = test system: OVCAR-3 ovarian
OVCAR-4 ovarian = test system: OVCAR-4 ovarian
OVCAR-5 ovarian = test system: OVCAR-5 ovarian
SF-539 CNS = test system: SF-539 CNS
SK-MEL-28 melanoma = test system: SK-MEL-28 melanoma
SNB-19 CNS = test system: SNB-19 CNS
TK-10 renal = test system: TK-10 renal

Row | Compound | TGI (A498 renal) [µM] | TGI (ACHN renal) [µM] | TGI (CAKI-1 renal) [µM] | TGI (COLO 205 colon) [µM] | TGI (DU-145 prostate) [µM] | TGI (HCT-116 colon) [µM] | TGI (HT29 colon) [µM] | TGI (KM12 colon) [µM] | TGI (MDA-MB-435) [µM] | TGI (MDA-N) [µM] | TGI (NCI-H522 lung) [µM] | TGI (OVCAR-3 ovarian) [µM] | TGI (OVCAR-4 ovarian) [µM] | TGI (OVCAR-5 ovarian) [µM] | TGI (SF-539 CNS) [µM] | TGI (SK-MEL-28 melanoma) [µM] | TGI (SNB-19 CNS) [µM] | TGI (TK-10 renal) [µM]
1 | Brc1c2c(c(Br)c3nsnc13)N=S=N2 | > 96.4 | 72.2 | 40.4 | > 60.1 | > 100 | > 69.2 | > 60.4 | > 100 | > 74.4 | > 73 | > 57.5 | 68.6 | > 55.7 | 64.3 | 57.6 | > 70.7 | > 70 | 47.3
2 | CCOC(=O)c1cc(C2=CCNC2=O)c(-c2cc(C)no2)[nH]1 | > 100 | > 100 | > 100 | > 100 | > 100 | > 100 | > 100 | > 100 | > 100 | > 100 | 46.6 | > 100 | > 100 | > 100 | > 100 | > 100 | > 100 | > 100
3 | CCOc1cc(/C=N/c2nc3cc4sc(/N=C/c5ccc(O)c(OCC)c5)nc4cc3s2)ccc1O | > 100 | > 100 | > 100 | > 100 | > 100 | > 100 | > 100 | > 100 | > 100 | > 100 | > 100 | > 100 | > 100 | > 100 | 62.3 | 42.7 | > 100 | > 100
4 | COc1ccc2nc3cc([N+](=O)[O-])ccc3c(NNc3ccc([N+](=O)[O-])cc3)c2c1 | 0.382 | > 100 | 29.6 | > 100 | > 100 | > 100 | > 63.9 | > 100 | > 100 | > 100 | > 100 | > 100 | > 100 | > 100 | > 100 | > 100 | > 76.8 | > 24.2
5 | N#Cc1sc2c(c1OC(=O)c1ccc(Cl)cc1)c(=O)n(-c1ccccc1)c(=S)n2-c1ccccc1 | 57.2 | 86.8 | 60.3 | 38.1 | > 100 | 44.3 | 76.3 | 32.5 | 52.5 | 55.1 | 5.29 | 64.2 | 76.7 | 68.2 | 44 | 47.2 | 61.4 | 88.7
6 | COC(O)C(=O)c1c2c(cc3c1CCC3)CCC2 (stereo not drawn) | > 100 | > 100 | > 100 | > 100 | > 100 | > 100 | > 100 | > 100 | > 100 | > 100 | > 100 | > 100 | > 100 | > 100 | > 100 | > 100 | > 100 | > 100
7 | COc1ccc(OC)c(N=Cc2cc(OC)c(OC)c(OC)c2)c1 | > 100 | > 100 | > 100 | > 100 | > 100 | > 100 | > 100 | > 100 | > 76.2 | > 100 | 57.7 | > 40.3 | > 100 | > 100 | > 100 | > 100 | > 100 | > 100
8 | CCOC(CN(C)C(=O)Nc1ccc(Cl)c(Cl)c1)OCC | > 10 | > 10 | > 10 | > 10 | > 10 | > 10 | > 10 | > 10 | > 10 | > 10 | > 10 | > 10 | > 10 | – | > 10 | > 10 | > 10 | > 10
9 | CC(C)(C)C(O)CC(O)(C(F)(F)F)C(F)(F)F (stereo not drawn) | > 100 | > 100 | > 100 | > 100 | > 100 | > 100 | > 100 | > 100 | > 100 | > 100 | > 100 | > 100 | > 100 | > 100 | > 100 | > 100 | > 100 | > 100
10 | O=C1C=CC(=O)c2c(O)c(NCCO)c(Cl)c(O)c21 | > 10 | > 10 | > 10 | 3.4 | 4.98 | 3.55 | 7.43 | > 10 | 4.23 | 3.42 | > 10 | 7.41 | 1.49 | > 5.87 | 5.73 | 3.65 | > 10 | > 10
11 | CC1(C)CCCC2CC2CCC(C)(C)C1=O (stereo not drawn) | > 100 | > 100 | > 100 | 39 | > 100 | > 100 | > 100 | > 100 | > 100 | > 100 | > 100 | 82.7 | > 100 | > 100 | > 100 | > 100 | > 100 | > 100
12 | O=C(CCc1ccc(O)c(O)c1)NCCc1ccccc1 | > 100 | > 100 | 41 | > 100 | > 100 | > 31.6 | > 72.2 | > 100 | 29.3 | 43.3 | 43.4 | > 100 | > 54.2 | > 100 | > 89.9 | > 100 | > 100 | > 100
13 | O=C(/C=C\c1ccsc1)c1ccccc1 | 15.5 | 21.1 | 8.12 | 30.5 | 25.4 | 14.5 | 15.5 | 8.5 | 23.1 | 25.8 | 4.34 | 27.9 | 16.4 | 32.4 | 24.2 | 24.9 | 25.9 | 29.3
14 | COC(=O)CNC(=O)CNC(=O)CSc1nnc(COc2ccc(Cl)cc2)n1-c1ccccc1 | > 100 | > 100 | 31.7 | > 100 | > 100 | > 100 | > 100 | 47.3 | 34.5 | 55.4 | 31.8 | 37.6 | > 100 | > 100 | > 100 | 56.3 | > 100 | > 100
15 | Cc1occc1C(=S)Nc1ccc(Cl)c(C(=O)OCC(C)C)c1 | 30.4 | 43.2 | 37.8 | 39.9 | 39.8 | 28.8 | 26.3 | 27.5 | 32.8 | 47.8 | 29.2 | 46.5 | 39.2 | 88.1 | 43.6 | 32.3 | 31.2 | 33.5
16 | C/C(=N\Nc1nc2ccccc2o1)c1ncccn1 | 15.8 | 11.3 | 1.57 | 15.8 | > 50.8 | 17 | 45.4 | 30.2 | 23.4 | > 54.5 | 22.3 | – | 10.2 | 19.6 | 1.03 | 28.6 | > 100 | 18.2
17 | CC(=O)c1cc2c(s1)C(=O)c1ccsc1C2=O | 12.6 | 0.626 | 4.29 | 40.5 | 0.743 | 1.59 | 4.19 | 3.11 | 0.226 | 0.197 | 0.486 | 0.729 | 2.56 | 2.03 | 0.649 | 0.361 | 1.02 | 3.69
18 | COC(=O)[C@H](C)NC(=O)C1(CNC(=O)[C@H](C)NC(=O)OC(C)(C)C)Cc2ccccc2-c2ccccc2C1 | > 71.1 | > 57.7 | > 39.6 | 53.9 | > 42.7 | > 54.1 | 39.8 | 40.2 | 38.2 | > 58.5 | 20.8 | 49.6 | > 63.5 | 41.1 | > 58.1 | > 70.6 | > 100 | > 59.2
19 | Cc1ccc(S(=O)(=O)NN=C2C(C)(C)CC2(C)C)cc1 | > 100 | > 100 | > 100 | > 100 | > 100 | > 100 | > 100 | > 100 | > 100 | > 100 | > 100 | > 100 | > 100 | > 100 | > 100 | > 100 | > 100 | > 100
20 | O=S(=O)(O)c1ccc(Nc2ccnc3ccccc23)cc1 | > 100 | > 100 | > 100 | > 100 | > 100 | > 100 | > 100 | > 100 | > 100 | > 100 | > 100 | – | > 100 | > 100 | > 100 | > 100 | > 100 | > 100
21 | O=C(NNC(=S)Nc1ccc(Cl)cc1)C12CC3CC(CC(C3)C1)C2 | 22.9 | 29 | 49.5 | 18.3 | 43.6 | 9.26 | 21.4 | > 51.6 | 37.8 | 43.6 | 20.2 | 10.6 | 54.5 | 81.1 | 14.3 | 60.8 | > 79.2 | 70.8
22 | C=C[C@]1(C)CC(=O)C(C(C)C=O)[C@]12C(=O)Oc1cccc(C)c1C2=O (stereo partly drawn) | 71.1 | 29 | 27.6 | 31.2 | 30.6 | 20.6 | 27.6 | 28.8 | 29.3 | 27.6 | 18.2 | 29.6 | 35.5 | 30.6 | 31 | 29.2 | 24.6 | 28.2
23 | CCCCCCCCCC(=O)NCCc1c[nH]c2ccc(OC)cc12 | 29.9 | 30.6 | 65.6 | 55.7 | 42.1 | 43.5 | > 100 | > 100 | 60.3 | 35.5 | 32.1 | 30.3 | > 100 | 61.2 | 46 | 33.1 | 31.2 | 35.1
24 | Cc1c2oc3c(C)cnc(C(=O)NC4C(=O)NC(C(C)C)C(=O)N5CCCC5C(=O)N(C)CC(=O)N(C)C(C(C)C)C(=O)OC4C)c3nc-2c(C(=O)NC2C(=O)NC(C(C)C)C(=O)N3CCCC3C(=O)N(C)CC(=O)N(C)C(C(C)C)C(=O)OC2C)c(N)c1=O (stereo not drawn) | 29.8 | > 64.6 | 73 | 14.2 | > 75 | > 35.5 | > 75 | 61.1 | 16.7 | 16.9 | 18 | > 58.2 | 73.5 | > 75 | 17.7 | 30.3 | > 68.4 | > 75
25 | COc1ccc(C(OC(=O)[C@H](O[Si](C)(C)C(C)(C)C)[C@@H](NC(=O)c2ccccc2)c2ccccc2)c2ccc(OC)cc2)cc1 | > 100 | > 100 | > 100 | > 100 | > 100 | > 100 | > 100 | > 100 | > 100 | > 100 | > 100 | > 100 | > 100 | > 100 | > 100 | – | > 100 | > 100
26 | CC(=O)Nc1ncc2c(n1)-c1ccccc1OC2c1ccccc1 (stereo not drawn) | 51.6 | 28.2 | 68.3 | > 100 | > 100 | > 100 | > 100 | > 100 | > 100 | > 100 | > 100 | > 100 | 85.5 | > 100 | 35.1 | – | 89.6 | 63.2
